Patent US20260028404A1 (UNIVERSITY OF KANSAS, priority 2022, published 2026)
“Also recorded” adds a separate entry of the source.

What was measured:
[1] = test system: 28 immune related proteins; assay: GeoMx digital spatial profiling, biopsy vs resected treated tumor; type: in vivo, human
Description: GeoMx DSP analysis: Digital spatial profiling of pre-and post-treatment formalin-fixed, paraffin embedded (FFPE) tumor tissue was performed using the GeoMx DSP platform (NanoString Technologies) to measure levels of 28 protein markers associated with immune oncology. Specifically, the immune cell profiling core protein module and IO drug target protein module were used for this analysis following manufacturer's protocol for staining, hybridization, collection, detection (nCounter based-counting), and data normalization. Briefly, this entailed an initial pathologist review of hematoxylin and eosin-stained sections by a pathologist at KUMC to verify presence of tumor cells within the FFPE block. Next, a 5 μm-think unstained FFPE slide was subjected to a cocktail of primary antibodies conjugated with unique DNA-oligonucleotide moieties attached with a light sensitive photocleavable linker. Within this cocktail were also anti-pan-cytokeratin (included with GeoMx assay and used for the basal cell carcinoma and squamous cell carcinoma samples) or anti-MART-1 (Novus Biologicals, catalog #NBP2-46603AF647 used for targeting epithelium in melanoma samples), CD45 (for targeting immune cells) and Syto-13 (used as a nuclear stain). These fluorescently labeled antibodies were used for imaging and identifying the regions of interest (ROIs) followed by segmentation into tumor cells and immune cells for independent collection from each ROI into individual wells of a 96-well plate followed by digital quantification using the NanoString nCounter platform. The GeoMx DSP Analysis Suite version 2.4 was used to perform data QC, normalization, and statistical analysis following guidance by NanoString field scientists. For analysis of similar cell populations (i.e., expression levels only in epithelial cells or only in immune cells), the geometric mean of housekeeping proteins GAPDH, Histone H3, and S6 was used for normalization. When different cell populations were being analyzed (i.e., expression levels in epithelial versus immune cells), the geometric mean of the signal-to-noise ratio of negative control mouse and rabbit isotype IgG controls was used for background correction prior.
The GeoMx Digital Spatial Profiling (DSP) platform (NanoString) was used to profile 28 immune related proteins. This platform allows users to perform nondestructive interrogation of formalin-fixed paraffin embedded (FFPE) tissue (among other tissue types) for multiplexed spatial profiling of immunooncology-related proteins to assess tumor cells and their microenvironment. The GeoMx platform uses a cocktail of antibodies conjugated to photocleavable DNA-barcoded oligos to provide high multiplex capacity and the use of guided ultraviolet light exposure (by way of adjustable 1 million micromirrors) provides a high degree of flexibility in selection of regions of interest for study. DSP technology and the GeoMx platform have been extensively reviewed.
Using the GeoMx DSP platform, we performed in situ digital spatial profiling of tissue specimens collected from the COPAX trial patients before and after treatment to measure levels of 28 proteins (Immune cell profiling panel, and the IO drug target panel). After a pathologist review of H&E-stained tissue specimens to assess presence of tumor cells, GeoMx DSP analysis was performed on a serial unstained slide for each sample. Regions of interest (ROIs) which encompassed both tumor and immune cells were selected either by free-hand drawing using the polygon tool or using a standard circle. The ROIs were further segmented into tumor cells and immune cells based on the staining pattern of morphology markers (pan-cytokeratin and CD45 for the carcinomas and MARTI and CD45 for the melanomas). Following segmentation, the DNA bar codes corresponding to each target in the antibody cocktail were collected by the instrument. […]

[2] = test system: differentially expressed genes; assay: RNAseq differential gene expression, pre vs post treatment tumor; type: in vivo, human
Description: RNASeq Analysis: A cutoff linear fold-change of 4 was used to select for the differentially expressed genes in each patient. Gene ontology (GO) of the biological process, functional annotation clustering, and Kyoto Encyclopedia of Genes and Genomes (KEGG) pathway analysis of the differentially expressed genes was performed using Database for Annotation, Visualization, and Integrated Discovery (DAVID) v2021^7,8.
Immune biomarkers were assessed in tumor biopsies and compared with those in the resected tumors after treatment. Conventional RNA sequencing and a geographical sequencing platform (GeoMx) were used to assess immune markers at the transcriptional level. In the RNA-Seq gene expression analysis, genes were filtered for differentially expressed genes (|FC|<4) between pre-and post-samples for three patients.

For Glatiramer acetate [GA], the “patients with CD56 upregulated” value ([1]; Table B patients) was 2 patients, the “patients with PD-L1 upregulated” value ([1]; Table B patients) was 3 patients and the “Gene expression (upregulated post-treatment)” value (“Gene expression” for short) ([1]; patient BCCa-Left Nasal Ala, 2 Copaxone injections) was “CD56, CD11c,”. For the same substance, the “Gene expression” value ([1]; patient BCCa-Right Post. Neck, 2 Copaxone injections) was “VISTA, GITR”, the “Gene expression” value ([1]; patient SCCa-Right Cheek, 1 Copaxone injection) was “CD45, CD3,; also recorded: OX401, GITR,” and the “immune marker expression after treatment (GeoMx, overall)” value ([1]; patients, biopsy vs resected treated tumor, listed as Copaxone®) was “immunostimulatory effect at the intratumoral injection site; also recorded: Several patients exhibited upregulated expression of genes that encode targets for checkpoint inhibitor therapy; also recorded: upregulated markers of stimulatory immune activity; also recorded: Immune markers including hallmarks of T cell recruitment and activation were upregulated in tumors”. The “Gene Ontology enrichment, upregulated biological processes” value ([2]; all three patients) was “upregulation in genes involved in promoting an immune-rich tumor microenvironment”, the “genes downregulated post treatment” value ([2]; patient 1) was 406 genes and the “genes upregulated post treatment” value ([2]; patient 1, |FC|<4 filter as printed, listed as Copaxone) was 6355 genes. For the same substance, the “genes upregulated post treatment” value ([2]; patient 1, |FC|<4 filter as printed, listed as Copaxone®) was 6,355 genes, the “genes downregulated post treatment” value ([2]; patient 2) was 75 genes and the “genes upregulated post treatment” value ([2]; patient 2) was 647 genes. For the same substance, the “genes downregulated post treatment” value ([2]; patient 3) was 128 genes, the “genes upregulated post treatment” value ([2]; patient 3) was 5375 genes and the “Gene Ontology enrichment, downregulated biological processes” value ([2]; three patients) was “No biological processes were consistently found to be downregulated post treatment”.
